Data on one compound can be found in US20240166626A1, “Compounds and Methods for Preventing, Treating, or Ameliorating Airway Disease” (THOMAS JEFFERSON UNIVERSITY, priority 2021, published 2024).

The experiment concerns the target FLAG-β2AR (Homo sapiens, UniProt P07550). Description: Receptor internalization, cell surface ELISA, HEK 293 FLAG-β2AR. It counts as cell-based. The conditions noted are these: 10 μM DFPQ, ISO up to 60 min, FIG. 4A. On the procedure: FIGS. 4A-4F: DFPQ inhibits internalization of the β2AR and protects from agonist induced desensitization in cell and tissue models. FIG. 4A: Effect of DFPQ on agonist-promoted internalization of the β2AR. […] Cells were fixed and receptor surface expression was measured by ELISA. […] Cells were lysed and cAMP production was measured by ELISA. […] FIG. 4C: […] Airway contractility was measured by luminal area of bronchioles by microscopy at various times. FIG. 4D: […] HASM cells were scratched and incubated overnight in PDGF containing serum free media. Cells were imaged to evaluate migration into the scratched area. […] Cells were read every three minutes for 18 minutes on a PolarStar Optima plate reader (BMG) to establish peak signal. […] Luminescence was determined at room temperature (23-25° C.) on a PolarStar Optima plate reader (BMG). […] Relative assay bias was calculated from the ratio of normalized cAMP and arrestin recruitment responses. […] BRET was measured using a Tecan Infinite F500 microplate reader. […] Bound [35 S]GTPγS was collected by rapid filtration on GF/B filters, washed 4 times with 4 ml of cold GTPγS wash buffer and analyzed by liquid scintillation counting. […] Immunoprecipitated proteins were separated by SDS-PAGE and analyzed by western blot using a β2AR C-terminal tail or phospho-specific antibody. […] Band intensity was measured by densitometry using ImageJ. […]
A general note: An ELISA detects its analyte on a solid surface through an enzyme-linked reagent.

Sequence of FLAG-β2AR (P07550 whole entry): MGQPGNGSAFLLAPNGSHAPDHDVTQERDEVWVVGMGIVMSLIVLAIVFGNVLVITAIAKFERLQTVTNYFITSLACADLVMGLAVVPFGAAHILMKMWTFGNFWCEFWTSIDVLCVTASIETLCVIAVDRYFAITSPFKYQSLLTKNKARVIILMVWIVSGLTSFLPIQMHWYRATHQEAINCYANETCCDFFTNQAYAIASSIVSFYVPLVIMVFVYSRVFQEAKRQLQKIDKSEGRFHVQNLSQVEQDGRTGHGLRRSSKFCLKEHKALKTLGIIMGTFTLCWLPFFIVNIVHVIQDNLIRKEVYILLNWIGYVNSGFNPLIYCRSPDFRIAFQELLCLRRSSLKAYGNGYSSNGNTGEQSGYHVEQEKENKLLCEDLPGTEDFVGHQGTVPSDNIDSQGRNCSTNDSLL

Take `Fc1ccc(Nc2nc(NC3CCCCC3)c3ccccc3n2)cc1F` [DFPQ, N^4-cyclohexyl-N^2-(3,4-difluorophenyl)quinazoline-2,4-diamine]: the “agonist-induced internalization of the receptor” value is “fully inhibited”.
